Measured values: paper PMC11768629, “Potential Interaction of Pinocembrin with Drug Transporters and Hepatic Drug-Metabolizing Enzymes” (Pharmaceuticals, 2025)
Several values for one entry are separate records, joined by “and”; a condition that tells them apart may be missing. Identical values can stand only once. Like-named read-outs stand apart in the source and are kept apart here.

How the values were obtained:
[1] = molecular target: T1, hOCT2 (Homo sapiens, UniProt O15244); assay: Cis-inhibition assay, 3H-MPP+ uptake in hOCT2-CHO-K1 cells; assay type: cell-based; details: pinocembrin
T1 construct: host or cells: CHO-K1
Protocol: (§1) Next, the effects of pinocembrin on the transport function of renal drug transporters, including hOAT1, hOAT3, hOCT1, hOCT2, hMATE1, and hMATE2, were determined.
(§2) A cell monolayer comprising hOAT1-MDCK, hOAT3-MDCK, hOCT1-CHO-K1, hOCT2-CHO-K1, hMATE1-CHO-K1, hMATE2-CHO-K1, and mock cells were utilized for the uptake experiments. The cells were washed three times with a buffer containing (in mM) 140 NaCl, 5 KCl, 0.4 MgSO4, 0.5 MgCl2, 1 CaCl2, 0.3 Na2HPO4, 0.4 KH2PO4, 6 D-glucose, and 4 NaHCO3 at pH 7.4 and incubated at 37 °C for 15 min. After incubation, the hOAT1-MDCK and hOAT3-MDCK cells were incubated for 10 min with ^3H-PAH and ^3H-estrone sulfate, a substrate of hOAT1 and hOAT3, respectively. The hOCT1-CHO-K1 and hOCT2-CHO-K1 cells were incubated with ^3H-MPP^+, a substrate of OCT1 and OCT2, for five minutes. The functions of MATE1 and MATE2 were determined by incubating the hMATE1-CHO-K1 and hMATE2-CHO-K1 cells with a buffer containing ^3H-MPP^+, a substrate of MATE1 and MATE2, at pH 8.5 for five minutes. The cells were washed three times with an ice-cold buffer to stop the transport function. The cells were lyzed with 0.4 N NaOH for at least four hours. The samples were collected and transferred to vials containing a liquid scintillation cocktail to measure radioactivity by a β-counter (Packard BioScience, Wellesley, MA, USA). […]

[2] = molecular target: T2, hMATE2 (Homo sapiens, UniProt Q86VL8); assay: Cis-inhibition assay, 3H-MPP+ uptake in hMATE2-CHO-K1 cells; assay type: cell-based; details: pinocembrin, pH 8.5
T2 construct: host or cells: CHO-K1
Protocol: as §1, §2

[3] = test system: hOAT1-MDCK cells; assay: Cell viability assay (MTT) in hOAT1-MDCK cells; assay type: cell-based, canine
Protocol: (§3) The hOAT1-MDCK cells and hOAT3-MDCK cells were treated with 1, 10, and 50 μM pinocembrin for 24 h, followed by a measurement of ^3H-PAH and ^3H-estrone sulfate cellular accumulation. […] The inhibitory effect of pinocembrin occurred in a concentration-dependent manner.
(§4) We determined whether the inhibitory effect of pinocembrin on hOAT1 and hOAT3. We studied whether pinocembrin could reduce the renal toxicity of tenofovir, a substrate of hOAT1 and hOAT3 known for inducing renal tubular dysfunction.
(§5) The confluent cells in 96-well plates were treated with pinocembrin for 48 h at 37 °C. After that, the cells were incubated with 0.5 mg/mL MTT solution for four hours. The MTT solution was removed, and DMSO (100 µL) was added to dissolve the crystal formazan. The formazan content was detected at a wavelength of 570 nm using a microplate reader. Cell viability was reported as a percentage of the vehicle-treated cells.

[4] = test system: hOAT3-MDCK cells; assay: Cell viability assay (MTT) in hOAT3-MDCK cells; assay type: cell-based, canine; details: pinocembrin 1, 10 and 50 μM, compared to vehicle-treated cells
Protocol: as §3, §4, §5

[5] = molecular target: T3, CYP2C9 (Homo sapiens, UniProt P11712); assay: Cell-free CYP450 inhibition assay, CYP2C9; assay type: biochemical; details: cell-free fluorescent probe assay, BACULOSOMES
T3 construct: purchased Life Technologies
Protocol: To determine whether pinocembrin influences the catalytic activity of CYP450 enzymes, fluorescent probe reaction assays were performed using varying concentrations of pinocembrin. […] In addition, molecular docking was conducted to better understand the binding mode and interactions between pinocembrin and human CYP2C19.
The CYP450 inhibitory activity of pinocembrin was determined using a P450 screening kit (Life Technologies; Carlsbad, CA, USA). Varied concentrations of pinocembrin were prepared in methanol. […] The fluorescence intensities were monitored every minute for 60 min at room temperature. The percentage of inhibition was calculated according to the following equation: % Inhibition=(1−X−B/A−B)×100% where X is the fluorescence intensity observed in the presence of pinocembrin.

[6] = design: method as in PMID 25814318; details: cited from earlier work
[7] = test system: OATP1A2; design: method as in PMID 28745105; details: transfected renal cells; cited from earlier work
[8] = test system: CYP1A2; details: cited from earlier work
[9] = 80 mg intravenous injection, human subjects

T2 sequence (Q86VL8 whole entry): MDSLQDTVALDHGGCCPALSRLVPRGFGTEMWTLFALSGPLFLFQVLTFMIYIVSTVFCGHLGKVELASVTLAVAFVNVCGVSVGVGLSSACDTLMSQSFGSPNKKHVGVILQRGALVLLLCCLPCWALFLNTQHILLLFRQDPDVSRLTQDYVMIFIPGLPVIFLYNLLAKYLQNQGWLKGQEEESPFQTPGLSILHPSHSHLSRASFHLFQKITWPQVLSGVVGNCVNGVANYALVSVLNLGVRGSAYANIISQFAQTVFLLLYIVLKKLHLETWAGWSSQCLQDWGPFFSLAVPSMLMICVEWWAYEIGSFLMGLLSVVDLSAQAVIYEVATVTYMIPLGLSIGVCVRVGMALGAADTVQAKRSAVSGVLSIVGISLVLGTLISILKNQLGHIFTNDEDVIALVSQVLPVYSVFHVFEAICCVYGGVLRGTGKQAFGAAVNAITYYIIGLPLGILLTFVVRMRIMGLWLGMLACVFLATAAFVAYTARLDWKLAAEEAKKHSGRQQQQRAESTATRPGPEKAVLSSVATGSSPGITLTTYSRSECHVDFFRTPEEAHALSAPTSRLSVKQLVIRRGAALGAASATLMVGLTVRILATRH
T3 sequence (P11712 whole entry): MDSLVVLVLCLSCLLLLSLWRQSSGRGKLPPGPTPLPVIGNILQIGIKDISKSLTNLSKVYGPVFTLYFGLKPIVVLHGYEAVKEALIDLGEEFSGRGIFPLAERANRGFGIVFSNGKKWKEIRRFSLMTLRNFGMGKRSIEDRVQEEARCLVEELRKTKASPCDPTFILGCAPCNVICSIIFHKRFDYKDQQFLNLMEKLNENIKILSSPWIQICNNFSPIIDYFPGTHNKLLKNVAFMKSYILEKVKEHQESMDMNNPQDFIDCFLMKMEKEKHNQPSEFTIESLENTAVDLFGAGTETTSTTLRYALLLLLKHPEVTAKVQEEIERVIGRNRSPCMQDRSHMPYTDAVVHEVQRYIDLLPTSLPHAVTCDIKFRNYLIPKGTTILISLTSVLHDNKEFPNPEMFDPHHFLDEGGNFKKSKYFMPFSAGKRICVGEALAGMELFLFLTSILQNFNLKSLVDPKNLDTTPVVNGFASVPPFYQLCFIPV
T1 sequence (O15244 whole entry): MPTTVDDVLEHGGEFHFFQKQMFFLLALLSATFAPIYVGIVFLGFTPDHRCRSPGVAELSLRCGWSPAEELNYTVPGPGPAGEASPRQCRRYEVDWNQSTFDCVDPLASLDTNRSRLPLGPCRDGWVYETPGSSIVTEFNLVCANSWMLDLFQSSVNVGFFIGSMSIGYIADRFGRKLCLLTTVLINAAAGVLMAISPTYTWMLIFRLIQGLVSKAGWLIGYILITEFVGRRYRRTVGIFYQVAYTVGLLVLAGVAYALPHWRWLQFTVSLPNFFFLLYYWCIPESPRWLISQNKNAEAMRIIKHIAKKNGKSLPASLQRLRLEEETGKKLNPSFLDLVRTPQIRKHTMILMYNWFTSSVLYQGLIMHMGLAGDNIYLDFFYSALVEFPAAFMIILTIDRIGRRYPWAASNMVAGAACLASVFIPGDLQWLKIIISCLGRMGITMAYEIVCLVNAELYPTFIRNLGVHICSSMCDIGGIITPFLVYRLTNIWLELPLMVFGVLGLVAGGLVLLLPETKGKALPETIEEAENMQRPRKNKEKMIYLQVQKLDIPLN

- hOCT2-mediated uptake of 3H-MPP+ [1]: did not alter
- hMATE2-mediated uptake of 3H-MPP+ [2]: did not alter
- IC50 [5]: 345 µM
Structure (SMILES): O=C1C[C@@H](c2ccccc2)Oc2cc(O)cc(O)c21 [pinocembrin]
- cell viability ([3]; pinocembrin 1, 10 and 50 μM, compared to vehicle-treated cells): did not affect cell viability
- cell viability on co-treatment with tenofovir ([3]; tenofovir plus pinocembrin, 48 h, compared with tenofovir-treated cells alone): considerably increased cell viability
- cell viability [4]: did not affect cell viability
- maximal plasma concentration ([6]; 40 mg intravenous injection): 0.6 µg/mL and 2.3 µM
- maximal plasma concentration ([6]; 80 mg intravenous injection): 4.7 µM
- T1/2 [6, 9]: 55 min
- maximal plasma concentration (Cmax) [6, 9]: 1220 ng/mL
- observed plasma concentration ([6]; phase I clinical trials): 3 to 10 µM
- effect on OATP1A2 function [7]: weakly inhibits
- mechanism of CYP1A2 inhibition [8]: competitive
- effect on the activity of CYP1A2 ([8]; concentrations of 1–5 µM): shows an inhibitory effect
